One experiment addresses T1, MDM2 (Homo sapiens, UniProt Q00987).
T1 construct: GST-MDM2 RING (RING domain)
Briefly: biotin-InuA streptavidin pulldown with free InuA competition; time-dependent covalent binding kinetics by Western blot (biotin-InuA). (A western blot detects proteins with antibodies after separation by electrophoresis.)

For the next experiment, the target named is T2, MDMX (Homo sapiens, UniProt O15151).
T2 construct: gene MDM4; GST-MDMX RING (RING domain)
T2 sequence (O15151 428-490 limits assumed): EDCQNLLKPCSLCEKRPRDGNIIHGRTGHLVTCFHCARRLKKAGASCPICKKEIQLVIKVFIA
Described as above.

For one substance, KI (inactivation) results are on record in paper PMC5735069, “Targeting the NFAT1-MDM2-MDMX Network Inhibits the Proliferation and Invasion of Prostate Cancer Cells, Independent of p53 and Androgen” (Frontiers in Pharmacology, 2017).

T1 sequence (Q00987 428-491 limits assumed): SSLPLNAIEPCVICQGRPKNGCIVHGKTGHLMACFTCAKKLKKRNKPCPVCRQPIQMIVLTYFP

With Inulanolide A [InuA], the KI (inactivation) amounted to 550 nM on MDM2 and 860 nM on MDMX.
